The results in this text go back to patent US6576675B1, “Z-styryl sulfone anticancer agents” (Temple University - Of the Commonwealth System of Higher …, priority 1999, dated 2003).

SMILES strings stand for the structures.

The subject of one assay is Breast cell lines: MCF-7, BT-20, 435. The assay is described as follows: Viability assay (Trypan blue exclusion), breast tumor cell lines. In kind it is cell-based. The conditions noted are these: 2.5 mM, 72 hours, read-out: % Death, tumor cell type Breast. Here is the method: (§1) The effect of the Z-styryl sulfones on normal fibroblasts and on tumor cells of breast, prostate and ovarian origin was examined utilizing the following cell lines: breast tumor cell lines: MCF-7, BT-20 and 435; prostate tumor cell lines LnCaP and DU-145; and ovarian tumor cell lines OVCAR and SKOV3. NIH/3T3 and HFL cells, which are normal murine and human fibroblasts, respectively, were also tested. LnCap is an androgen-dependent prostate tumor cell line. MCF-7 is an estrogen-responsive breast tumor cell line, while BT-20 and 435 are estrogen-unresponsive breast tumor cell lines. MCF-7, BT-20 and 435 were grown in Dulbecco's modified Eagle's medium (DMEM) containing 10% fetal bovine serum supplemented with penicillin and streptomycin. LnCaP and Du145 were cultured in RPMI with 10% fetal bovine serum containing penicillin and streptomycin. NIH3T3 and HFL cells were grown in DMEM containing 10% calf serum supplemented with penicillin and streptomycin. All cell cultures were maintained at 37° C. in a humidified atmosphere of 5% CO2.
(§2) Cells were treated with test compound at 2.5 mM concentration and cell viability was determined after 72 hours by the Trypan blue exclusion method.
(§3) Activity for each compound is reported as a range of cell induced death (% Death) with the lowest activity in the range of 10-20% and the highest being above 75%.
For the molecule `Cc1ccc(/C=C\S(=O)(=O)Cc2ccc(Cl)cc2)cc1` [Example 18, Z-4-Methylstyryl 4-Chlorobenzylsulfone], the cytotoxicity at 2500 µM lay in the range of 20 to 25%.

As to `O=S(=O)(/C=C\c1ccccc1)Cc1ccc(Cl)cc1` [Example 2, Z-styryl 4-Chlorobenzylsulfone], the cytotoxicity at 2500 µM is 20 to 25%.

Turning to `O=S(=O)(/C=C\c1ccccc1)Cc1ccc(F)cc1` [Example 4, Z-styryl 4-Fluorobenzylsulfone], the cytotoxicity at 2500 µM was 20 to 25%.

On to `O=S(=O)(/C=C\c1ccccc1)Cc1ccccc1Cl` [Example 3, Z-styryl 2-Chlorobenzylsulfone], for which the cytotoxicity at 2500 µM lay in the range of 20 to 25%.

As for `O=S(=O)(/C=C\c1ccc(Cl)cc1)Cc1ccccc1Cl` [Example 7, Z-4-Chlorostyryl 2-Chlorobenzylsulfone], the cytotoxicity at 2500 µM was 20 to 25%.

Take `O=S(=O)(/C=C\c1ccc(F)cc1)Cc1ccccc1` [Example 9, Z-4-Fluorostyryl Benzylsulfone]: the cytotoxicity at 2500 µM fell in the range of 20 to 25%.

In the case of `O=S(=O)(/C=C\c1ccc(Br)cc1)Cc1ccccc1Cl` [Example 15, Z-4-Bromostyryl 2-Chlorobenzylsulfone], the cytotoxicity at 2500 µM was in the range of 20 to 25%.

For `O=S(=O)(/C=C\c1ccc(F)cc1)Cc1ccc(Cl)cc1` [Example 10, Z-4-Fluorostyryl 4-Chlorobenzylsulfone], the cytotoxicity at 2500 µM is 60 to 70%.

Take `Cc1ccc(/C=C\S(=O)(=O)Cc2ccccc2Cl)cc1` [Example 19, Z-4-Methylstyryl 2-Chlorobenzylsulfone]: the cytotoxicity at 2500 µM fell in the range of 20 to 25%.

For the molecule `O=S(=O)(/C=C\c1ccccc1)Cc1ccccc1` [Example 1, Z-styryl Benzylsulfone], the cytotoxicity at 2500 µM lay within 10 to 20%.

Another assay relates to Prostate cell lines: LnCaP, DU-145. The assay is described as follows: Viability assay (Trypan blue exclusion), prostate tumor cell lines. In kind it is cell-based. The conditions noted are these: 2.5 mM, 72 hours, read-out: % Death, tumor cell type Prostate. Here is the method: as §1, §2, §3
As for `Cc1ccc(/C=C\S(=O)(=O)Cc2ccc(Cl)cc2)cc1` [Example 18, Z-4-Methylstyryl 4-Chlorobenzylsulfone], the cytotoxicity at 2500 µM was in the range of 20 to 25%.

As to `O=S(=O)(/C=C\c1ccccc1)Cc1ccc(Cl)cc1` [Example 2, Z-styryl 4-Chlorobenzylsulfone], the cytotoxicity at 2500 µM fell in the range of 20 to 25%.

Take `O=S(=O)(/C=C\c1ccccc1)Cc1ccc(F)cc1` [Example 4, Z-styryl 4-Fluorobenzylsulfone]: the cytotoxicity at 2500 µM is 20 to 25%.

With `O=S(=O)(/C=C\c1ccccc1)Cc1ccccc1Cl` [Example 3, Z-styryl 2-Chlorobenzylsulfone], the cytotoxicity at 2500 µM fell in the range of 20 to 25%.

In the case of `O=S(=O)(/C=C\c1ccc(Cl)cc1)Cc1ccccc1Cl` [Example 7, Z-4-Chlorostyryl 2-Chlorobenzylsulfone], the cytotoxicity at 2500 µM is 20 to 25%.

Regarding `O=S(=O)(/C=C\c1ccc(F)cc1)Cc1ccccc1` [Example 9, Z-4-Fluorostyryl Benzylsulfone], the cytotoxicity at 2500 µM is 20 to 25%.

`O=S(=O)(/C=C\c1ccc(Br)cc1)Cc1ccccc1Cl` [Example 15, Z-4-Bromostyryl 2-Chlorobenzylsulfone]: the cytotoxicity at 2500 µM lay within 20 to 25%.

`O=S(=O)(/C=C\c1ccc(F)cc1)Cc1ccc(Cl)cc1` [Example 10, Z-4-Fluorostyryl 4-Chlorobenzylsulfone]: the cytotoxicity at 2500 µM fell in the range of 60 to 70%.

As to `Cc1ccc(/C=C\S(=O)(=O)Cc2ccccc2Cl)cc1` [Example 19, Z-4-Methylstyryl 2-Chlorobenzylsulfone], the cytotoxicity at 2500 µM was 20 to 25%.

Consider `O=S(=O)(/C=C\c1ccccc1)Cc1ccccc1` [Example 1, Z-styryl Benzylsulfone], for which the cytotoxicity at 2500 µM was 10 to 20%.

The subject of a further assay is Ovarian cell lines: OVCAR, SKOV3. As to the kind of experiment: Viability assay (Trypan blue exclusion), ovarian tumor cell lines. The class given is cell-based. Particulars: Homo sapiens, 2.5 mM, 72 hours, read-out: % Death, tumor cell type Ovarian. The method, then: as §1, §2, §3
`Cc1ccc(/C=C\S(=O)(=O)Cc2ccc(Cl)cc2)cc1` [Example 18, Z-4-Methylstyryl 4-Chlorobenzylsulfone]: the cytotoxicity at 2500 µM was in the range of 20 to 25%.

As to `O=S(=O)(/C=C\c1ccccc1)Cc1ccc(Cl)cc1` [Example 2, Z-styryl 4-Chlorobenzylsulfone], the cytotoxicity at 2500 µM fell in the range of 20 to 25%.

As to `O=S(=O)(/C=C\c1ccccc1)Cc1ccc(F)cc1` [Example 4, Z-styryl 4-Fluorobenzylsulfone], the cytotoxicity at 2500 µM lay in the range of 20 to 25%.

As for `O=S(=O)(/C=C\c1ccccc1)Cc1ccccc1Cl` [Example 3, Z-styryl 2-Chlorobenzylsulfone], the cytotoxicity at 2500 µM lay in the range of 20 to 25%.

As for `O=S(=O)(/C=C\c1ccc(Cl)cc1)Cc1ccccc1Cl` [Example 7, Z-4-Chlorostyryl 2-Chlorobenzylsulfone], the cytotoxicity at 2500 µM is 20 to 25%.

With `O=S(=O)(/C=C\c1ccc(F)cc1)Cc1ccccc1` [Example 9, Z-4-Fluorostyryl Benzylsulfone], the cytotoxicity at 2500 µM lay in the range of 20 to 25%.

Take `O=S(=O)(/C=C\c1ccc(Br)cc1)Cc1ccccc1Cl` [Example 15, Z-4-Bromostyryl 2-Chlorobenzylsulfone]: the cytotoxicity at 2500 µM lay within 20 to 25%.

Turning to `O=S(=O)(/C=C\c1ccc(F)cc1)Cc1ccc(Cl)cc1` [Example 10, Z-4-Fluorostyryl 4-Chlorobenzylsulfone], the cytotoxicity at 2500 µM was in the range of 60 to 70%.

For the molecule `Cc1ccc(/C=C\S(=O)(=O)Cc2ccccc2Cl)cc1` [Example 19, Z-4-Methylstyryl 2-Chlorobenzylsulfone], the cytotoxicity at 2500 µM was in the range of 20 to 25%.

Take `O=S(=O)(/C=C\c1ccccc1)Cc1ccccc1` [Example 1, Z-styryl Benzylsulfone]: the cytotoxicity at 2500 µM fell in the range of 10 to 20%.

A further assay relates to Lung cell lines: N417, H157. As to the kind of experiment: Viability assay (Trypan blue exclusion), lung tumor cell lines. The conditions noted are these: 2.5 mM, 72 hours, read-out: % Death, tumor cell type Lung. The class given is cell-based. The method, then: as §2, §3
(§4) The procedure of Example 22 was followed for certain of the (Z)-benzylsulfones, substituting the following cancer cell lines: lung, N417 and H157; renal, CAKI-1 and CAKI-2; glioma, U87 and SW1088.
For `Cc1ccc(/C=C\S(=O)(=O)Cc2ccc(Cl)cc2)cc1` [Example 18, Z-4-Methylstyryl 4-Chlorobenzylsulfone], the cytotoxicity at 2500 µM fell in the range of 20 to 25%.

Consider `O=S(=O)(/C=C\c1ccc(Cl)cc1)Cc1ccccc1Cl` [Example 7, Z-4-Chlorostyryl 2-Chlorobenzylsulfone], for which the cytotoxicity at 2500 µM fell in the range of 20 to 25%.

Consider `O=S(=O)(/C=C\c1ccc(Br)cc1)Cc1ccccc1Cl` [Example 15, Z-4-Bromostyryl 2-Chlorobenzylsulfone], for which the cytotoxicity at 2500 µM lay within 20 to 25%.

Consider `O=S(=O)(/C=C\c1ccc(F)cc1)Cc1ccc(Cl)cc1` [Example 10, Z-4-Fluorostyryl 4-Chlorobenzylsulfone], for which the cytotoxicity at 2500 µM was in the range of 60 to 70%.

Another assay relates to Renal cell lines: CAKI-1, CAKI-2. The assay is described as follows: Viability assay (Trypan blue exclusion), renal tumor cell lines. The class given is cell-based. Particulars: 2.5 mM, 72 hours, read-out: % Death, tumor cell type Renal. The method, then:
as §2, §3, §4
As for `Cc1ccc(/C=C\S(=O)(=O)Cc2ccc(Cl)cc2)cc1` [Example 18, Z-4-Methylstyryl 4-Chlorobenzylsulfone], the cytotoxicity at 2500 µM was 20 to 25%.

In the case of `O=S(=O)(/C=C\c1ccc(Cl)cc1)Cc1ccccc1Cl` [Example 7, Z-4-Chlorostyryl 2-Chlorobenzylsulfone], the cytotoxicity at 2500 µM fell in the range of 20 to 25%.

In the case of `O=S(=O)(/C=C\c1ccc(Br)cc1)Cc1ccccc1Cl` [Example 15, Z-4-Bromostyryl 2-Chlorobenzylsulfone], the cytotoxicity at 2500 µM was 20 to 25%.

`O=S(=O)(/C=C\c1ccc(F)cc1)Cc1ccc(Cl)cc1` [Example 10, Z-4-Fluorostyryl 4-Chlorobenzylsulfone]: the cytotoxicity at 2500 µM is 60 to 70%.

For a further assay, the system named is Glioma cell lines: U87, SW1088. The assay is described as follows: Viability assay (Trypan blue exclusion), glioma cell lines. In kind it is cell-based. The conditions noted are these: Homo sapiens, 2.5 mM, 72 hours, read-out: % Death, tumor cell type Glioma. Here is the method:
as §2, §3, §4
Consider `Cc1ccc(/C=C\S(=O)(=O)Cc2ccc(Cl)cc2)cc1` [Example 18, Z-4-Methylstyryl 4-Chlorobenzylsulfone], for which the cytotoxicity at 2500 µM lay within 20 to 25%.

For the molecule `O=S(=O)(/C=C\c1ccc(Cl)cc1)Cc1ccccc1Cl` [Example 7, Z-4-Chlorostyryl 2-Chlorobenzylsulfone], the cytotoxicity at 2500 µM lay in the range of 20 to 25%.

Turning to `O=S(=O)(/C=C\c1ccc(Br)cc1)Cc1ccccc1Cl` [Example 15, Z-4-Bromostyryl 2-Chlorobenzylsulfone], the cytotoxicity at 2500 µM is 20 to 25%.

Consider `O=S(=O)(/C=C\c1ccc(F)cc1)Cc1ccc(Cl)cc1` [Example 10, Z-4-Fluorostyryl 4-Chlorobenzylsulfone], for which the cytotoxicity at 2500 µM lay in the range of 60 to 70%.
